In PubChem BioAssay (NCI):
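Five compound concentrations were applied to cells in 96-well plates for 48 hours; endpoints were derived by simple linear interpolation of the resulting dose-response curve. The concentration for full growth arrest is given as TGI.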

How the values were obtained:
Assay in all cases: NCI anticancer screen, dose series, 48 h
EKVX NSCLC = test system: EKVX NSCLC
NCI-H23 lung = test system: NCI-H23 lung
786-0 renal = test system: 786-0 renal
M14 melanoma = test system: M14 melanoma
MOLT-4 leukemia = test system: MOLT-4 leukemia
T-47D breast = test system: T-47D breast
HCT-116 colon = test system: HCT-116 colon
NCI/ADR-RES ovarian = test system: NCI/ADR-RES ovarian
HCC-2998 colon = test system: HCC-2998 colon
CCRF-CEM leukemia = test system: CCRF-CEM leukemia
SNB-75 CNS = test system: SNB-75 CNS

COc1ccc(CCNC(=O)CCCCCO)cc1OC
TGI (EKVX NSCLC): > 100 µM
TGI (NCI-H23 lung): > 100 µM
TGI (786-0 renal): > 100 µM
TGI (M14 melanoma): > 100 µM
TGI (MOLT-4 leukemia): > 100 µM
TGI (T-47D breast): > 100 µM
TGI (HCT-116 colon): > 100 µM
TGI (NCI/ADR-RES ovarian): > 100 µM
TGI (HCC-2998 colon): > 100 µM
TGI (CCRF-CEM leukemia): > 100 µM
TGI (SNB-75 CNS): > 100 µM

CCOc1cc2c(cc1O)CC[C@@H]1[C@@H]2CC[C@]2(C)C(OS(=O)OC3CC[C@@H]4[C@H]5CCc6cc(O)c(OCC)cc6[C@@H]5CC[C@@]34C)CC[C@@H]12 (some centres undefined)
TGI (EKVX NSCLC): > 37.7 µM
TGI (NCI-H23 lung): 14 µM
TGI (786-0 renal): > 34.3 µM
TGI (M14 melanoma): 2.58 µM
TGI (MOLT-4 leukemia): > 68 µM
TGI (T-47D breast): > 100 µM
TGI (HCT-116 colon): > 39.6 µM
TGI (NCI/ADR-RES ovarian): 23.7 µM
TGI (HCC-2998 colon): 31.9 µM
TGI (CCRF-CEM leukemia): > 100 µM
TGI (SNB-75 CNS): 34.4 µM

COc1ccc(N=N/C(=N/NC(=O)c2cc(Cl)ccc2C(=O)c2ccccc2)c2ccc(N(CCC#N)CCC#N)cc2C)cc1
TGI (EKVX NSCLC): 61.1 µM
TGI (NCI-H23 lung): 61.9 µM
TGI (786-0 renal): 86.7 µM
TGI (M14 melanoma): 92 µM
TGI (MOLT-4 leukemia): 33.8 µM
TGI (T-47D breast): 47.4 µM
TGI (HCT-116 colon): 33.5 µM
TGI (NCI/ADR-RES ovarian): 59.1 µM
TGI (HCC-2998 colon): 70.8 µM
TGI (CCRF-CEM leukemia): 19.8 µM
TGI (SNB-75 CNS): > 100 µM

COc1ccc(-c2nnc(CCCCCCCCc3nnc(-c4ccc(OC)cc4)n3N)n2N)cc1
TGI (EKVX NSCLC): > 100 µM
TGI (NCI-H23 lung): > 100 µM
TGI (786-0 renal): > 31.6 µM
TGI (M14 melanoma): > 100 µM
TGI (MOLT-4 leukemia): > 100 µM
TGI (T-47D breast): > 100 µM
TGI (HCT-116 colon): > 100 µM
TGI (NCI/ADR-RES ovarian): > 31.6 µM
TGI (HCC-2998 colon): > 100 µM
TGI (CCRF-CEM leukemia): > 100 µM
TGI (SNB-75 CNS): > 66.4 µM

COc1cc(C2c3cc4c(cc3OC3(OC)COC(=O)C23)OCO4)cc(OC)c1OC (centres undefined)
TGI (EKVX NSCLC): > 72.1 µM
TGI (NCI-H23 lung): > 100 µM
TGI (786-0 renal): > 27.1 µM
TGI (M14 melanoma): 8.43 µM
TGI (MOLT-4 leukemia): 12.2 µM
TGI (T-47D breast): > 100 µM
TGI (HCT-116 colon): 7 µM
TGI (NCI/ADR-RES ovarian): 4.39 µM
TGI (HCC-2998 colon): 14.9 µM
TGI (CCRF-CEM leukemia): 3.05 µM
TGI (SNB-75 CNS): > 100 µM

O=C(CCc1ccc(O)c(O)c1)NCCc1ccc(O)c(O)c1
TGI (EKVX NSCLC): > 100 µM
TGI (NCI-H23 lung): > 100 µM
TGI (786-0 renal): 33.8 µM
TGI (M14 melanoma): > 100 µM
TGI (MOLT-4 leukemia): > 100 µM
TGI (T-47D breast): > 100 µM
TGI (HCT-116 colon): > 100 µM
TGI (NCI/ADR-RES ovarian): > 100 µM
TGI (HCC-2998 colon): > 100 µM
TGI (CCRF-CEM leukemia): 78.3 µM
TGI (SNB-75 CNS): > 100 µM

O=S(=O)(O)c1cc(Nc2ccnc3ccccc23)c2c(S(=O)(=O)O)cc(S(=O)(=O)O)cc2c1
TGI (EKVX NSCLC): > 100 µM
TGI (NCI-H23 lung): > 100 µM
TGI (786-0 renal): > 100 µM
TGI (M14 melanoma): > 100 µM
TGI (MOLT-4 leukemia): > 100 µM
TGI (T-47D breast): > 100 µM
TGI (HCT-116 colon): > 100 µM
TGI (NCI/ADR-RES ovarian): > 100 µM
TGI (HCC-2998 colon): > 100 µM
TGI (CCRF-CEM leukemia): > 100 µM
TGI (SNB-75 CNS): > 100 µM

Cc1nc2c(Cl)cc(Cl)cc2c(Cl)c1CCCl
TGI (EKVX NSCLC): > 100 µM
TGI (NCI-H23 lung): > 100 µM
TGI (786-0 renal): > 100 µM
TGI (M14 melanoma): > 100 µM
TGI (MOLT-4 leukemia): > 100 µM
TGI (T-47D breast): 89.7 µM
TGI (HCT-116 colon): > 100 µM
TGI (NCI/ADR-RES ovarian): > 100 µM
TGI (HCC-2998 colon): > 100 µM
TGI (CCRF-CEM leukemia): > 100 µM
TGI (SNB-75 CNS): > 100 µM

CCOC(=O)Cn1nnc2cc(Nc3nc4ccccc4nc3C(=O)OCC)ccc21
TGI (EKVX NSCLC): > 100 µM
TGI (NCI-H23 lung): > 100 µM
TGI (786-0 renal): > 100 µM
TGI (M14 melanoma): > 100 µM
TGI (MOLT-4 leukemia): > 100 µM
TGI (T-47D breast): > 100 µM
TGI (HCT-116 colon): > 100 µM
TGI (NCI/ADR-RES ovarian): > 100 µM
TGI (HCC-2998 colon): > 100 µM
TGI (CCRF-CEM leukemia): > 100 µM
TGI (SNB-75 CNS): 9.39 µM

CCCCC1(N=[N+]=[N-])C(=O)C2C=CC=C3c4ccccc4N(C1=O)C32 (centres undefined)
TGI (EKVX NSCLC): > 31.6 µM
TGI (NCI-H23 lung): > 31.6 µM
TGI (786-0 renal): > 31.6 µM
TGI (M14 melanoma): > 31.6 µM
TGI (MOLT-4 leukemia): > 31.6 µM
TGI (T-47D breast): > 31.6 µM
TGI (HCT-116 colon): > 31.6 µM
TGI (NCI/ADR-RES ovarian): > 31.6 µM
TGI (HCC-2998 colon): > 31.6 µM
TGI (CCRF-CEM leukemia): > 31.6 µM
TGI (SNB-75 CNS): 23.1 µM

CN(C)CCNC(=O)c1cccc2[nH]c(-c3ccncc3)nc12
TGI (EKVX NSCLC): 73.7 µM
TGI (NCI-H23 lung): 32.1 µM
TGI (786-0 renal): 4.15 µM
TGI (M14 melanoma): 3.39 µM
TGI (MOLT-4 leukemia): > 100 µM
TGI (T-47D breast): > 86.1 µM
TGI (HCT-116 colon): 9.82 µM
TGI (NCI/ADR-RES ovarian): > 100 µM
TGI (HCC-2998 colon): 4.34 µM
TGI (CCRF-CEM leukemia): 7.77 µM
TGI (SNB-75 CNS): 26.5 µM

Cc1[nH]c(=O)nc2nc3ccc(Cl)cc3c(NC(C)(CO)CO)c12
TGI (EKVX NSCLC): > 100 µM
TGI (NCI-H23 lung): > 100 µM
TGI (786-0 renal): > 100 µM
TGI (M14 melanoma): > 100 µM
TGI (MOLT-4 leukemia): > 100 µM
TGI (T-47D breast): > 100 µM
TGI (HCT-116 colon): > 100 µM
TGI (NCI/ADR-RES ovarian): > 100 µM
TGI (HCC-2998 colon): > 100 µM
TGI (CCRF-CEM leukemia): > 100 µM
TGI (SNB-75 CNS): > 96.5 µM

Cc1cc2c(c(C(=O)NCCC(=O)N[C@@H](C)C(=O)OCc3ccccc3)c1)Oc1c(cc(C)cc1C(=O)NCCC(=O)N[C@@H](C)C(=O)OCc1ccccc1)S2
TGI (EKVX NSCLC): > 100 µM
TGI (NCI-H23 lung): > 100 µM
TGI (786-0 renal): > 100 µM
TGI (M14 melanoma): > 100 µM
TGI (MOLT-4 leukemia): > 100 µM
TGI (T-47D breast): > 100 µM
TGI (HCT-116 colon): > 100 µM
TGI (NCI/ADR-RES ovarian): > 100 µM
TGI (HCC-2998 colon): > 100 µM
TGI (CCRF-CEM leukemia): > 100 µM
TGI (SNB-75 CNS): > 100 µM

CSC1(SC)N2Cc3ccccc3N=C2C1(c1ccccc1)c1ccccc1
TGI (EKVX NSCLC): > 89 µM
TGI (NCI-H23 lung): > 100 µM
TGI (786-0 renal): > 100 µM
TGI (M14 melanoma): > 100 µM
TGI (MOLT-4 leukemia): > 44.9 µM
TGI (T-47D breast): > 100 µM
TGI (HCT-116 colon): > 100 µM
TGI (NCI/ADR-RES ovarian): > 67 µM
TGI (HCC-2998 colon): 23.2 µM
TGI (CCRF-CEM leukemia): > 65 µM
TGI (SNB-75 CNS): > 100 µM

COc1cc2c(cc1OC(=O)c1cc3ccccc3[nH]1)N=C[C@@H]1CCCN1C2=O
TGI (EKVX NSCLC): 3.2 µM
TGI (786-0 renal): 4.23 µM
TGI (M14 melanoma): 0.387 µM
TGI (MOLT-4 leukemia): 0.553 µM
TGI (T-47D breast): 6.25 µM
TGI (HCT-116 colon): 3.19 µM
TGI (NCI/ADR-RES ovarian): > 100 µM
TGI (HCC-2998 colon): 1.12 µM
TGI (CCRF-CEM leukemia): 1.95 µM
TGI (SNB-75 CNS): 7.02 µM
